According to BindingDB's records for doi:10.1021/acschembio.6b00677 (Pfizer, 2016):

Tests used:
Test in all cases: TR-FRET Competition Assay
Details in all cases: pH 7.5
[1] = target: T1, Tyrosine-protein kinase TXK (Homo sapiens, UniProt P42681)
T1 sequence (P42681 whole entry): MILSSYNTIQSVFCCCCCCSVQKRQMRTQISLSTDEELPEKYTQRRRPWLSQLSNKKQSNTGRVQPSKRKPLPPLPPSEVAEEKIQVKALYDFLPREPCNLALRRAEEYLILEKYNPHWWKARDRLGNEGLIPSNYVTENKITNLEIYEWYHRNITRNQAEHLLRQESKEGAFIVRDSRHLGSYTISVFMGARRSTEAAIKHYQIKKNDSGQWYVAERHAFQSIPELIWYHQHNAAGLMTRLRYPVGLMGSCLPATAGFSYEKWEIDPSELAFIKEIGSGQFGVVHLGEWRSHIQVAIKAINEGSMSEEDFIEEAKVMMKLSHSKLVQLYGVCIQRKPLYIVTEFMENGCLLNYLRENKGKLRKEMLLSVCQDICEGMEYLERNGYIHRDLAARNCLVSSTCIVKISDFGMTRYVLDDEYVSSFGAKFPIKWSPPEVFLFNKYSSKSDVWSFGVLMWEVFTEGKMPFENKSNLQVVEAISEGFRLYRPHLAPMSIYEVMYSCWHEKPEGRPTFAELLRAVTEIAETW
Experimental: (§1) Assay buffer was 20 mM HEPES, pH 7.5, 10 mM MgCl2, 0.01% BSA, 1 mM DTT, 0.0005% Tween 20, and 2% DMSO. […] The assays were read using an EnVi

[2] = target: Tyrosine-protein kinase Blk (Homo sapiens, UniProt P51451)
Experimental: as §1

[3] = target: T2, Tyrosine-protein kinase Tec (Homo sapiens, UniProt P42680)
T2 sequence (P42680 whole entry): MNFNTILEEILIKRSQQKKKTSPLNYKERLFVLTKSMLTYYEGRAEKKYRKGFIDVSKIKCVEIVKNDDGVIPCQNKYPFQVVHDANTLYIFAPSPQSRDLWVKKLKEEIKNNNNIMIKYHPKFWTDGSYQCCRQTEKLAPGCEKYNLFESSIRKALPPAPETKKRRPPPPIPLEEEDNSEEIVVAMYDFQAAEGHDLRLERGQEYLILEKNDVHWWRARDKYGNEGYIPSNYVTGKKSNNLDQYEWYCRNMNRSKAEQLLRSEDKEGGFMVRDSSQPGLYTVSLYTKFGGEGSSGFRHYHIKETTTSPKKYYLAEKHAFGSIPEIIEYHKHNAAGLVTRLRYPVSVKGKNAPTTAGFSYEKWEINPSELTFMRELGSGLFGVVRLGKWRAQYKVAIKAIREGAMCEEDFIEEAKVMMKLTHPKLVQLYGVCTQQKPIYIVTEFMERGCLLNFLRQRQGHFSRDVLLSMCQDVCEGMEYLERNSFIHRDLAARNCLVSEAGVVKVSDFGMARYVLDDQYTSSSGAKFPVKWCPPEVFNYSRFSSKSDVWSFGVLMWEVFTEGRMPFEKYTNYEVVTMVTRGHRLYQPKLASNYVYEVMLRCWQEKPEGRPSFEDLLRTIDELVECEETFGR
Experimental: as §1

Sequence of Tyrosine-protein kinase Blk (P51451 whole entry): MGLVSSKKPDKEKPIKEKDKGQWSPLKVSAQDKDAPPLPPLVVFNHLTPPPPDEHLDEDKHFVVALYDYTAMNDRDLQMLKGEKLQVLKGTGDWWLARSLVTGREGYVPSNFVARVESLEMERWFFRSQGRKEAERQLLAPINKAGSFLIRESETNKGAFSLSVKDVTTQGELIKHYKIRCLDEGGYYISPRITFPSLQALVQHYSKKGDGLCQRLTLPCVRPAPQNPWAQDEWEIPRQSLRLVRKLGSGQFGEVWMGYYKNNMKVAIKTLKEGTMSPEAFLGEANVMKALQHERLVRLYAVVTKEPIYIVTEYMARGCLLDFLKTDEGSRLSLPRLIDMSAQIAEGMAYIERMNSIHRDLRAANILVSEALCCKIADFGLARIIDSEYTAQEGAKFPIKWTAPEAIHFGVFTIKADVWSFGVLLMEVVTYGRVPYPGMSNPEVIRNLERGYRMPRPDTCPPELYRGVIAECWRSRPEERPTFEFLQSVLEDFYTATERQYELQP

Ki [1]: 0.131 nM
Ki [2]: 32.4 nM
Ki [3]: 0.679 nM
Compound: C=CC(=O)N1C[C@H](Nc2ncnc3[nH]ccc23)CC[C@@H]1C [PF-06651600]
